Test results: ChEMBL document CHEMBL5528082 (J Med Chem, 2024)
The source made the active and inactive calls. The rule behind the calls is not given here.

Legend:
[1] = Cytotoxicity against human NCM460 cells assessed as inhibition rate of cell growth at 100 uM incubated for 24 hrs by CCK8 assay relative to control; assay type: toxicity, cell-based
Staphylococcus aureus [2] = assay: Bactericidal activity against Staphylococcus aureus ATCC 25923 assessed as bacterial growth suppression measured for 24 hrs by time kill assay; assay type: functional, organism-based
[3] = Acute toxicity in C57 mouse assessed as liver inflammation at 800 mg/kg, po measured after 1 week by biochemical analysis; assay type: organism-based; settings: in vivo, 168 h, time 1 weeks
[4] = Acute toxicity in C57 mouse assessed as damage in heart at 800 mg/kg, po measured after 1 week by H and E staining based analysis; assay type: organism-based; settings: in vivo, 168 h, time 1 weeks
[5] = Acute toxicity in C57 mouse assessed as damage in lung at 800 mg/kg, po measured after 1 week by H and E staining based analysis; assay type: organism-based; settings: in vivo, 168 h, time 1 weeks
[6] = Oral bioavailability in Sprague-Dawley rat at 15 mg/kg measured for 24 hrs by LC/MS analysis; assay type: ADME, organism-based; settings: in vivo
Staphylococcus aureus [7] = assay: Antibacterial activity against methicillin-resistant Staphylococcus aureus ATCC 33591 infected in C57 mouse model assessed as decrease in skin abscess at 2 to 10 mg/kg administered once a day for 3 days consecutively and measured after 24 hrs post-last dose; assay type: functional, organism-based; settings: dose 2-10 mg/kg, time 4.0 day
Staphylococcus aureus [8] = assay: Antibacterial activity against methicillin-resistant Staphylococcus aureus ATCC 33591 infected in C57 mouse model assessed as reduction in bacterial count at 2 to 10 mg/kg administered once a day for 3 days consecutively and measured after 24 hrs post-last dose by colony counting method; assay type: functional, organism-based; settings: dose 2-10 mg/kg, time 4.0 day
Dihydrofolate reductase = Dihydrofolate reductase (Staphylococcus aureus, UniProt P0A017); assay: Binding affinity to Staphylococcus aureus DHFR expressed in Escherichia coli BL21 (DE3) assessed dissociation constant by ITC analysis
Sequence of Dihydrofolate reductase (P0A017 whole entry): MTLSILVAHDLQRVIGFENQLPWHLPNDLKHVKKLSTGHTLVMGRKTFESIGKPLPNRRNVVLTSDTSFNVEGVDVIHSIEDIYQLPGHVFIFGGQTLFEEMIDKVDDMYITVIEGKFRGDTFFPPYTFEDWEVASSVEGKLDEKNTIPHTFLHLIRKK

Staphylococcus aureus [9] = assay: Synergistic antibacterial activity against TMP-resistant Staphylococcus aureus BHKS 723 assessed as fractional inhibitory concentration index incubated for 24 hrs in presence of SMX by CLSI based broth microdilution assay; assay type: functional
[10] = target: Dihydrofolate reductase (Staphylococcus aureus) (UniProt P0A017); settings: dose 10.0 µM, time 10.0 min
Sequence of Dihydrofolate reductase (Staphylococcus aureus) (P0A017 2-159 limits assumed): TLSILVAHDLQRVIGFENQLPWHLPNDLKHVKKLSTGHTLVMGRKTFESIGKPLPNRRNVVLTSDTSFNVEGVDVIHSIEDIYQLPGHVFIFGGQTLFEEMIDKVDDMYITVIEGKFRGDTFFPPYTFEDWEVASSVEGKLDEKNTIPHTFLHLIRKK

CC(C)c1cc(OCC2CC2)c(I)cc1Oc1cnc(N)nc1N
inhibition at 24 h, 100 µM [1]: 20.2%
Activity (Staphylococcus aureus [2]): Dose-Dependent Effect
Activity [3]: Toxic
Activity [4]: Non-Toxic
Activity [5]: Non-Toxic
bioavailability [6]: 40.7%
Activity (Staphylococcus aureus [7]): Active
Activity (Staphylococcus aureus [8]): Active
Kd (Dihydrofolate reductase): 1540 nM
fractional inhibitory concentration index (FICI) (Staphylococcus aureus [9]): 0.156
ΔTm [10]: 18 °C
